Here are results for five compounds from patent publication US10364314B2, “Compound, resin, material for forming underlayer film for lithography, composition for forming underlayer film for lithography, underlayer film for lithography, resist pattern forming method, circuit pattern forming method, and purification method” (Mitsubishi Gas Chemical Company, Inc., priority 2015, dated 2019).

This data set in a line: Solubility in PGME and PGMEA at 23° C. The data set is classed as physicochemical. Here is the method:
The amount of each compound dissolved in 1-methoxy-2-propanol (PGME) and propylene glycol monomethyl ether acetate (PGMEA) was measured at 23° C., and the results were evaluated according to the following criteria.
Evaluation A: 10% by mass or more
Evaluation B: 5% by mass or more and less than 10% by mass
Evaluation C: less than 5% by mass
Regarding `Oc1ccc2ccc3c(c2c1)C(c1c[nH]cn1)c1c(ccc2ccc(O)cc12)O3` [IMX-1], the “Evaluation of the solubility in PGME and PGMEA” value (from here on “Evaluation of the solubility”) is listed as “A (10% by mass or more)”; the “solubility in PGME and PGMEA” value is given as not below 10 % by mass.
The matching figures for `Oc1ccc2c3c(ccc2c1)Oc1ccc2cc(O)ccc2c1C3c1c[nH]cn1` [IMX-2]: “A (10% by mass or more)” and not below 10 % by mass.
With `Oc1ccc(-c2ccc(O)c(C(c3c[nH]cn3)c3cc(-c4ccc(O)cc4)ccc3O)c2)cc1` [IMX-3], the “Evaluation of the solubility” value was “A (10% by mass or more)”; the “solubility in PGME and PGMEA” value is given as not below 10 % by mass.
Take `Oc1ccc2c3c(ccc2c1)Oc1ccc2cc(O)ccc2c1C3c1c[nH]c(-c2ccccc2)n1` [IMX-4]: the “Evaluation of the solubility” value was “B (5% by mass or more and less than 10% by mass)”; the “solubility in PGME and PGMEA” value is not below 5 % by mass.
In the case of `CCCCc1nc(C2c3c(ccc4cc(O)ccc34)Oc3ccc4cc(O)ccc4c32)c(Cl)[nH]1` [IMX-5], the “Evaluation of the solubility” value is given as “A (10% by mass or more)”; the “solubility in PGME and PGMEA” value was not below 10 % by mass.
